Laboratory results from PubChem BioAssay AID210 (DTP/NCI, 2004).
“And” between values parts separate entries of the source, which are not always exact repeats. Equal values may be shown once. Toxic doses and inconclusive results are not listed.

Tested on: CD2F1 mice, ip Colon 26 adenocarcinoma, median survival T/C
Experiment: NCI In Vivo Anticancer Drug Screen. Data for tumor model Colon 26 Adenocarcinoma (intraperitoneal) in CD2F1 (CDF1) mice
Details: endpoint: median survival time, higher = longer survival
Method: The antitumor activity of compounds was measured in mice bearing transplantable tumors. Survival or tumor size were measured and the results are expressed as the measurement made in the treated group (T) divided by the measurement made in the vehicle treated control group (C). The tumor model used in this assay is Colon 26 Adenocarcinoma (intraperitoneal) in CD2F1 (CDF1) mice

O=C1c2c(O)ccc(O)c2C(=O)c2c(NCCNCCO)ccc(NCCNCCO)c21
T/C (dose: 0.19 mg/kg/injection, schedule: Q01DX009 (ip), vehicle: saline): 216 % of control and 277 % of control | T/C (dose: 0.25 mg/kg/injection, schedule: Q01DX009 (ip), vehicle: acid diluted with saline): 359 % of control | T/C (dose: 0.38 mg/kg/injection, schedule: Q01DX009 (ip), vehicle: saline): 289 % of control and 416 % of control | T/C (dose: 0.39 mg/kg/injection, schedule: Q01DX009 (ip), vehicle: acid diluted with saline): 259 % of control | T/C (dose: 0.39 mg/kg/injection, schedule: Q01DX009 (sc), vehicle: acid diluted with saline): 104 % of control | T/C (dose: 0.5 mg/kg/injection, schedule: Q01DX009 (ip), vehicle: acid diluted with saline): 365 % of control | T/C (dose: 0.65 mg/kg/injection, schedule: Q01DX009 (ip), vehicle: acid diluted with saline): 305 % of control | T/C (dose: 0.65 mg/kg/injection, schedule: Q01DX009 (sc), vehicle: acid diluted with saline): 104 % of control | T/C (dose: 0.75 mg/kg/injection, schedule: Q01DX009 (ip), vehicle: saline): 289 % of control and 416 % of control | T/C (dose: 1.0 mg/kg/injection, schedule: Q01DX009 (ip), vehicle: acid diluted with saline): 365 % of control | T/C (dose: 1.04 mg/kg/injection, schedule: Q04DX003 (ip), vehicle: acid diluted with saline): 386 % of control | T/C (dose: 1.04 mg/kg/injection, schedule: Q04DX003 (iv), vehicle: acid diluted with saline): 116 % of control | T/C (dose: 1.08 mg/kg/injection, schedule: Q01DX009 (ip), vehicle: acid diluted with saline): 353 % of control | T/C (dose: 1.08 mg/kg/injection, schedule: Q01DX009 (sc), vehicle: acid diluted with saline): 112 % of control | T/C (dose: 1.5 mg/kg/injection, schedule: Q01DX009 (ip), vehicle: saline): 109 % of control and 277 % of control | T/C (dose: 1.5 mg/kg/injection, schedule: Q07DX003 (iv), vehicle: acid diluted with saline): 100 % of control | T/C (dose: 1.73 mg/kg/injection, schedule: Q04DX003 (ip), vehicle: acid diluted with saline): 270 % of control | T/C (dose: 1.73 mg/kg/injection, schedule: Q04DX003 (iv), vehicle: acid diluted with saline): 120 % of control | T/C (dose: 1.8 mg/kg/injection, schedule: Q01DX009 (ip), vehicle: acid diluted with saline): 110 % of control | T/C (dose: 2.0 mg/kg/injection, schedule: Q01DX009 (ip), vehicle: acid diluted with saline): 365 % of control | T/C (dose: 2.88 mg/kg/injection, schedule: Q04DX003 (ip), vehicle: acid diluted with saline): 265 % of control | T/C (dose: 3.24 mg/kg/injection, schedule: Q01DX001 (ip), vehicle: acid diluted with saline): 209 % of control | T/C (dose: 3.24 mg/kg/injection, schedule: Q01DX001 (iv), vehicle: acid diluted with saline): 114 % of control | T/C (dose: 4.8 mg/kg/injection, schedule: Q04DX003 (ip), vehicle: acid diluted with saline): 197 % of control | T/C (dose: 5.4 mg/kg/injection, schedule: Q01DX001 (ip), vehicle: acid diluted with saline): 237 % of control | T/C (dose: 5.4 mg/kg/injection, schedule: Q01DX001 (iv), vehicle: acid diluted with saline): 110 % of control | T/C (dose: 6.0 mg/kg/injection, schedule: Q07DX003 (iv), vehicle: acid diluted with saline): 96 % of control | T/C (dose: 9.0 mg/kg/injection, schedule: Q01DX001 (ip), vehicle: acid diluted with saline): 123 % of control | T/C (dose: 9.0 mg/kg/injection, schedule: Q01DX001 (iv), vehicle: acid diluted with saline): 123 % of control

O=[N+]([O-])/C=C\c1ccc2c(c1)OCO2
T/C (dose: 3.12 mg/kg/injection, schedule: Q04DX003 (ip), vehicle: Klucel (hydroxypropylcellulose) (HPC)): 87 % of control | T/C (dose: 6.25 mg/kg/injection, schedule: Q04DX003 (ip), vehicle: Klucel (hydroxypropylcellulose) (HPC)): 105 % of control | T/C (dose: 25.0 mg/kg/injection, schedule: Q04DX003 (ip), vehicle: Klucel (hydroxypropylcellulose) (HPC)): 90 % of control

COc1cccc2c1C(=O)c1c(O)c3c(c(O)c1C2=O)C[C@@](O)(C(=O)CO)C[C@@H]3OC1CC(N)C(O)C(C)O1 (stereo not given in full)
T/C (dose: 0.25 mg/kg/injection, schedule: Q01DX009 (ip), vehicle: saline): 151 % of control | T/C (dose: 0.38 mg/kg/injection, schedule: Q04DX003 (ip), vehicle: water): 113 % of control | T/C (dose: 0.5 mg/kg/injection, schedule: Q01DX009 (ip), vehicle: saline): 154 % of control | T/C (dose: 0.75 mg/kg/injection, schedule: Q04DX003 (ip), vehicle: water): 117 % of control | T/C (dose: 1.0 mg/kg/injection, schedule: Q01DX009 (ip), vehicle: saline): 243 % of control | T/C (dose: 1.5 mg/kg/injection, schedule: Q04DX003 (ip), vehicle: water): 106 % of control | T/C (dose: 1.5 mg/kg/injection, schedule: Q07DX003 (iv), vehicle: saline): 111 % of control | T/C (dose: 1.73 mg/kg/injection, schedule: Q04DX003 (ip), vehicle: water): 157 % of control | T/C (dose: 2.0 mg/kg/injection, schedule: Q01DX009 (ip), vehicle: saline): 310 % of control | T/C (dose: 2.0 mg/kg/injection, schedule: Q04DX003 (ip), vehicle: saline): 278 % of control | T/C (dose: 3.0 mg/kg/injection, schedule: Q04DX003 (ip), vehicle: water): 91 % of control | T/C (dose: 3.0 mg/kg/injection, schedule: Q07DX003 (iv), vehicle: saline): 97 % of control | T/C (dose: 3.3 mg/kg/injection, schedule: Q07DX002 (iv), vehicle: saline): 105 % of control | T/C (dose: 3.7 mg/kg/injection, schedule: Q07DX003 (iv), vehicle: saline): 112 % of control | T/C (dose: 4.0 mg/kg/injection, schedule: Q04DX003 (ip), vehicle: saline): 334 % of control | T/C (dose: 4.3 mg/kg/injection, schedule: Q07DX002 (iv), vehicle: saline): 106 % of control | T/C (dose: 4.5 mg/kg/injection, schedule: Q07DX002 (iv), vehicle: saline): 108 % of control | T/C (dose: 4.5 mg/kg/injection, schedule: Q07DX002 (sc), vehicle: saline): 101 % of control | T/C (dose: 4.8 mg/kg/injection, schedule: Q04DX003 (ip), vehicle: water): 152 % of control | T/C (dose: 4.8 mg/kg/injection, schedule: Q07DX003 (iv), vehicle: saline): 107 % of control and 108 % of control | T/C (dose: 5.4 mg/kg/injection, schedule: Q07DX002 (iv), vehicle: saline): 111 % of control | T/C (dose: 5.8 mg/kg/injection, schedule: Q07DX003 (iv), vehicle: saline): 115 % of control | T/C (dose: 6.0 mg/kg/injection, schedule: Q04DX003 (ip), vehicle: water): 120 % of control | T/C (dose: 6.3 mg/kg/injection, schedule: Q07DX002 (ip), vehicle: saline): 197 % of control | T/C (dose: 6.3 mg/kg/injection, schedule: Q07DX002 (iv), vehicle: saline): 105 % of control and 106 % of control | T/C (dose: 6.3 mg/kg/injection, schedule: Q07DX003 (iv), vehicle: saline): 113 % of control and 114 % of control and 115 % of control | T/C (dose: 6.5 mg/kg/injection, schedule: Q07DX002 (iv), vehicle: saline): 122 % of control | T/C (dose: 7.3 mg/kg/injection, schedule: Q07DX002 (iv), vehicle: saline): 117 % of control | T/C (dose: 7.3 mg/kg/injection, schedule: Q07DX002 (sc), vehicle: saline): 114 % of control | T/C (dose: 8.1 mg/kg/injection, schedule: Q07DX002 (iv), vehicle: saline): 104 % of control and 112 % of control | T/C (dose: 8.1 mg/kg/injection, schedule: Q07DX003 (iv), vehicle: saline): 111 % of control and 119 % of control (2×) | T/C (dose: 8.7 mg/kg/injection, schedule: Q07DX002 (iv), vehicle: saline): 121 % of control | T/C (dose: 9.0 mg/kg/injection, schedule: Q07DX003 (iv), vehicle: saline): 111 % of control | T/C (dose: 9.3 mg/kg/injection, schedule: Q07DX002 (iv), vehicle: saline): 109 % of control | T/C (dose: 9.8 mg/kg/injection, schedule: Q07DX002 (iv), vehicle: saline): 124 % of control | T/C (dose: 10.5 mg/kg/injection, schedule: Q07DX002 (ip), vehicle: saline): 205 % of control | T/C (dose: 10.5 mg/kg/injection, schedule: Q07DX002 (iv), vehicle: saline): 111 % of control and 88 % of control | T/C (dose: 10.5 mg/kg/injection, schedule: Q07DX003 (iv), vehicle: saline): 120 % of control and 94 % of control | T/C (dose: 12.0 mg/kg/injection, schedule: Q04DX003 (ip), vehicle: water): 116 % of control | T/C (dose: 12.0 mg/kg/injection, schedule: Q07DX002 (iv), vehicle: saline): 123 % of control | T/C (dose: 12.0 mg/kg/injection, schedule: Q07DX002 (sc), vehicle: saline): 122 % of control | T/C (dose: 12.0 mg/kg/injection, schedule: Q07DX003 (iv), vehicle: saline): 96 % of control | T/C (dose: 14.0 mg/kg/injection, schedule: Q07DX002 (iv), vehicle: saline): 115 % of control | T/C (dose: 14.0 mg/kg/injection, schedule: Q07DX003 (iv), vehicle: saline): 117 % of control | T/C (dose: 19.0 mg/kg/injection, schedule: Q07DX002 (sc), vehicle: saline): 155 % of control

COc1cc([C@@H]2c3cc4c(cc3[C@@H](OC3OC5CO[C@@H](c6cccs6)OC5C(O)C3O)[C@H]3COC(=O)[C@H]23)OCO4)cc(OC)c1O (stereo not given in full)
T/C (dose: 5.0 mg/kg/injection, schedule: Q03DX002 (ip), vehicle: other): 90 % of control | T/C (dose: 10.0 mg/kg/injection, schedule: Q03DX002 (ip), vehicle: other): 92 % of control | T/C (dose: 30.0 mg/kg/injection, schedule: Q03DX002 (ip), vehicle: other): 104 % of control
